Experiments:
subjects with SLE [1] = test: Phase 2 clinical trial of belimumab in SLE with 24-week extension and continuation trial: disease activity (SELENA SLEDAI, SLE Flare Index, PGA, BILAG, SF-36); format: in vivo, human
Experimental: Further, response rates among the treatment groups in the trial were also analyzed using a combined response endpoint (row 1), which combined a measure of global disease activity as measured by the SS score, with a measure of a patient's overall condition as assessed by the PGA disease activity index and a measure of disease in specific organ systems as measured by the BILAG scale.
Serum autoantibodies, Ig isotypes and complement (C3, C4) were measured at 1-3 month intervals. […]

subjects with SLE [2] = test: Phase 2 clinical trial of belimumab in SLE with extension and continuation trial: biologic markers (B cells, autoantibodies, Ig isotypes, C3/C4); format: in vivo, human; parameters: median percent change in CD20+ B cells (reduction) / median percent change in plasmacytoid B cells (CD20+/CD138+) (reduction) / median percent change in activated B cells (CD20+/CD69+) (reduction) / percent of subjects with significant anti-dsDNA reduction / IgE reduction: concentration or dose not given beside the values; settings: for percent of subjects with significant anti-dsDNA reduction: clinical responders
Experimental: Of the patients who completed 52 weeks of treatment in the randomized, double-blind, placebo-controlled Phase 2 trial (see example 1), 96% (351/364) elected to enter the 24-week extension phase of the trial, and 92% (321/351) of those who entered completed it.
Serum autoantibodies, Ig isotypes and complement (C3, C4) were measured at 1-3 month intervals. In addition, the population with baseline serologic activity (ANA ≧1:80 or anti-dsDNA Ab ≧30IU; 72% of the original cohort herein called seropositive patients or seropositive subjects) was evaluated for SS, physician global assessment (PGA 0-3 units), BILAG, […] Functional Index (SFI) and autoantibody status at 1-3 month intervals.

[3] = ANA+ subjects, week 52, 1.0 mg/kg, N = 78
[4] = ANA+ subjects, week 52, 4.0 mg/kg, N = 79
[5] = ANA+ subjects, week 52, 10.0 mg/kg, N = 78
[6] = each measurement during weeks 8-52, p<0.01

belimumab: an antibody that neutralizes Neutrokine-alpha protein
dose response in efficacy (subjects with SLE [1]; 1, 4, 10 mg/kg): no dose response in efficacy | mean percent change from baseline PGA (subjects with SLE [1]; ANA+ subjects vs ANA+ placebo, as early as week 4, also weeks 8, 16, 48 (p<0.05), 52 (p<0.01)): significant improvement | mean SF-36 Physical Component Score (SF-36 PCS) (subjects with SLE [1]; ANA+ subjects vs ANA+ placebo, weeks 12, 24, 48, 52, p<0.05): significant improvements | frequency of increase in prednisone from ≦[…] to >[…] (subjects with SLE [1]; ANA+ subjects, as early as week 8, p<0.05 over weeks 8-12 and 32-40): significant reduction | combined response endpoint (SS, PGA, BILAG) (subjects with SLE [1]; ANA+ subjects, p=0.0058): significant response | % of subjects with no worsening by PGA (<0.3 point increase from baseline) (subjects with SLE [1]; [3]): (89.7%) | % of subjects with reduction in SELENA SLEDAI ≧4 (subjects with SLE [1]; [3]): (52.6%) | subjects with no worsening by PGA (<0.3 point increase from baseline), number (subjects with SLE [1]; [3]): 70 | subjects with reduction in SELENA SLEDAI ≧4, number (subjects with SLE [1]; [3]): 41 | % of subjects with no worsening by PGA (<0.3 point increase from baseline) (subjects with SLE [1]; [4]): (88.6%) | % of subjects with reduction in SELENA SLEDAI ≧4 (subjects with SLE [1]; [4]): (48.1%) | subjects with no worsening by PGA (<0.3 point increase from baseline), number (subjects with SLE [1]; [4]): 70 | subjects with reduction in SELENA SLEDAI ≧4, number (subjects with SLE [1]; [4]): 38 | % of subjects with no worsening by PGA (<0.3 point increase from baseline) (subjects with SLE [1]; [5]): (92.3%) | % of subjects with reduction in SELENA SLEDAI ≧4 (subjects with SLE [1]; [5]): (47.4%) | subjects with no worsening by PGA (<0.3 point increase from baseline), number (subjects with SLE [1]; [5]): 72 | subjects with reduction in SELENA SLEDAI ≧4, number (subjects with SLE [1]; [5]): 37 | subjects with no worsening by PGA (<0.3 point increase from baseline), number (subjects with SLE [1]; ANA+ subjects, week 52, All Active, N = 235, P 0.0027 vs placebo): 212 | % of subjects with no worsening by PGA (<0.3 point increase from baseline) (subjects with SLE [1]; ANA+ subjects, week 52, All Active, N = 235, P 0.0027 vs placebo (76.7%)): (90.2%) | subjects with reduction in SELENA SLEDAI ≧4, number (subjects with SLE [1]; ANA+ subjects, week 52, All Active, N = 235, P 0.1169 vs placebo): 116 | increases in BILAG organ domain score: musculoskeletal (subjects with SLE [1]; ANA+ subjects, week 52, p<0.008): fewer increases in score | increases in BILAG organ domain score: neurological (subjects with SLE [1]; ANA+ subjects, week 52, p<0.038): fewer increases in score | increases in BILAG organ domain score: general (subjects with SLE [1]; ANA+ subjects, week 52, p<0.15): trend toward fewer increases in score | increases in BILAG organ domain score: renal (subjects with SLE [1]; ANA+ subjects, week 52, p<0.15): trend toward fewer increases in score | reduction in SELENA SLEDAI (SS) score (subjects with SLE [1]; ANA+ subjects, week 52, p=0.0435): 29% | increases in BILAG organ domain score: cardiovascular & respiratory (subjects with SLE [1]; ANA+ subjects, week 52, p=0.060): trend toward fewer increases in score | subjects with increases of prednisone to >[…] (subjects with SLE [1]; belimumab-treated, placebo ~15%): ~7% | PGA score (subjects with SLE [1]; by week 16 (p=0.016) through week 52 (p<0.002), all active vs. placebo): improved | dosage of prednisone necessary to ameliorate disease manifestations (subjects with SLE [1]; lupus patients, IV days 0, 14, 28 then every four weeks until week 52): effective in reducing the dosage of the corticosteroid prednisone | symptoms associated with lupus (subjects with SLE [1]; patients with ANA titer 1:80 or greater and/or ≧30 IU/mL anti-dsDNA, IV days 0, 14, 28 then every four weeks until week 52): significantly ameliorated symptoms associated with lupus | combined response rate (subjects with SLE [1]; seropositive subjects (n=175) who completed 128 weeks): 63% | combined response rate (subjects with SLE [1]; seropositive subjects (n=321), all belimumab treatment groups combined, week 56, placebo 35%, p<0.05): 49% | SLE flare rate (SFI), percent of subjects with at least one flare (subjects with SLE [1]; seropositive subjects, fifth six-month interval): 33% | SLE flare rate (SFI), percent of subjects with at least one flare (subjects with SLE [1]; seropositive subjects, first six-month interval, placebo 76%): 72% | SLE flare rate (SFI), percent of subjects with at least one flare (subjects with SLE [1]; seropositive subjects, fourth six-month interval): 30% | SLE flare rate (SFI), percent of subjects with at least one flare (subjects with SLE [1]; seropositive subjects, second six-month interval, placebo 73%): 61% | SLE flare rate (SFI), percent of subjects with at least one flare (subjects with SLE [1]; seropositive subjects, third six-month interval): 57% | combined response rate (subjects with SLE [1]; seropositive subjects, weeks 76-128 of continuous therapy (ITT analysis)): 55% | combined response rate (subjects with SLE [1]; subjects with baseline Anti-dsDNA autoantibodies, week 52): 47% | combined response rate (subjects with SLE [1]; subjects with baseline Anti-dsDNA autoantibodies, week 128): 53% | combined response rate (subjects with SLE [1]; subjects with baseline RNP autoantibodies, week 52): 42% | combined response rate (subjects with SLE [1]; subjects with baseline RNP autoantibodies, week 128): 52% | combined response rate (subjects with SLE [1]; subjects with baseline Ro autoantibodies, week 52): 41% | combined response rate (subjects with SLE [1]; subjects with baseline Ro autoantibodies, week 128): 51% | combined response rate (subjects with SLE [1]; subjects with baseline aCl autoantibodies, week 52): 51% | combined response rate (subjects with SLE [1]; subjects with baseline aCl autoantibodies, week 128): 51% | composite numerical BILAG scores (subjects with SLE [1]; vs. placebo): no significant differences | percent of seropositive subjects with new 1A or 2B BILAG flares (subjects with SLE [1]; week 52, placebo 19%, p=0.0152): 9% | seropositive subjects with worsening PGA scores (subjects with SLE [1]; week 52, placebo 23%, p=0.0027): 10% | percent of seropositive subjects with SS>4 point improvement (subjects with SLE [1]; weeks 76-128): 58-60% | percent of seropositive subjects with new 1A or 2B BILAG flares (subjects with SLE [1]; weeks 96-128): 6-7% | seropositive subjects with worsening PGA scores (subjects with SLE [1]; weeks 96-128): 7-9% | subjects with elevated Ig isotype levels at baseline returned to normal Ig isotype levels (subjects with SLE [2]; 52/128, p=0.0014, control 16% (7/45)): 41% | decrease of anti-dsDNA levels (subjects with SLE [2]; anti-dsDNA+ at baseline, weeks 52-128, placebo week 52=9%): 29-44% | serum IgG, IgA, IgE and IgM levels, median percent change from baseline (subjects with SLE [2]; as early as week 8, p<0.0001 vs placebo): Significant belimumab-induced reductions | time at which maximal median reductions of each Ig isotype were reached (subjects with SLE [2]; belimumab-treated subjects): 8-24 weeks | percent of subjects with significant anti-dsDNA reduction (subjects with SLE [2]; week 52): 35% | percent of subjects with significant anti-dsDNA reduction (subjects with SLE [2]; week 128): 56% | CD19+ B cell counts, median percent change from baseline (subjects with SLE [2]; [6]): Significant reductions | activated B cell (CD20+/CD69+) counts, median percent change from baseline (subjects with SLE [2]; [6]): Significant reductions | naïve B cell (CD20+/CD27−) counts, median percent change from baseline (subjects with SLE [2]; [6]): Significant reductions | plasmacytoid B cell (CD20+/CD138+) counts, median percent change from baseline (subjects with SLE [2]; each measurement during weeks 16-52, p<0.01): Significant reductions | increase of C3 (subjects with SLE [2]; low baseline C3 (n=135), week 52, placebo −1%): 6% | increase of C3 (subjects with SLE [2]; low baseline C3, week 76): 10%

From patent US9168286B2, “Methods and compositions for use in treatment of patients with autoantibody positive disease” (Human Genome Sciences, Inc., priority 2005, dated 2015)
